Experimental data taken from the supplement of paper PMC10307832.

Experiments:
Assay in all cases: relative viability (nuclei count vs DMSO), 5 days (fraction); higher = more cells survive
Ruxolitinib + Trametinib = compound: N#CC[C@H](C1CCCC1)n1cc(-c2ncnc3[nH]ccc23)cn1 [Ruxolitinib] + CC(=O)Nc1cccc(-n2c(=O)n(C3CC3)c(=O)c3c(Nc4ccc(I)cc4F)n(C)c(=O)c(C)c32)c1 [Trametinib] (partner 0.02 µM)
In short: (§1)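 Lung cancer cell lines in 1536-well plates got either a single drug or a fixed anchor-drug dose together with five library-drug doses (not always all listed) in √10 steps, by pin tool, on the day after seeding. Nuclei were counted after 5 days, and relative viability is the treated-to-vehicle ratio of nuclei counts. Values are medians of duplicate plates.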

VE-821 + Navitoclax = compound: CS(=O)(=O)c1ccc(-c2cnc(N)c(C(=O)Nc3ccccc3)n2)cc1 [VE-821] + CC1(C)CCC(c2ccc(Cl)cc2)=C(CN2CCN(c3ccc(C(=O)NS(=O)(=O)c4ccc(N[C@H](CCN5CCOCC5)CSc5ccccc5)c(S(=O)(=O)C(F)(F)F)c4)cc3)CC2)C1 [Navitoclax] (partner 0.5 µM)
In short: as §1

Ruxolitinib + Linsitinib = compound: N#CC[C@H](C1CCCC1)n1cc(-c2ncnc3[nH]ccc23)cn1 [Ruxolitinib] + C[C@]1(O)C[C@@H](c2nc(-c3ccc4ccc(-c5ccccc5)nc4c3)c3c(N)nccn32)C1 [Linsitinib] (partner 1 µM)
In short: as §1

Vismodegib + OSI-027 = compound: CS(=O)(=O)c1ccc(C(=O)Nc2ccc(Cl)c(-c3ccccn3)c2)c(Cl)c1 [Vismodegib] + COc1cccc2cc(-c3nc([C@H]4CC[C@H](C(=O)O)CC4)n4ncnc(N)c34)[nH]c12 [OSI-027] (partner 0.5 µM)
In short: as §1

Cell Line	relative viability (Ruxolitinib + Trametinib; first compound 0.08 µM)	relative viability (Ruxolitinib + Trametinib; first compound 0.253 µM)	relative viability (Ruxolitinib + Trametinib; first compound 0.8 µM)	relative viability (Ruxolitinib + Trametinib; first compound 2.53 µM)	relative viability (Ruxolitinib + Trametinib; first compound 8 µM)	relative viability (VE-821 + Navitoclax; first compound 0.08 µM)	relative viability (VE-821 + Navitoclax; first compound 0.253 µM)	relative viability (VE-821 + Navitoclax; first compound 0.8 µM)	relative viability (VE-821 + Navitoclax; first compound 2.53 µM)	relative viability (VE-821 + Navitoclax; first compound 8 µM)	relative viability (Ruxolitinib + Linsitinib; first compound 0.08 µM)	relative viability (Ruxolitinib + Linsitinib; first compound 0.253 µM)	relative viability (Ruxolitinib + Linsitinib; first compound 0.8 µM)	relative viability (Ruxolitinib + Linsitinib; first compound 2.53 µM)	relative viability (Ruxolitinib + Linsitinib; first compound 8 µM)	relative viability (Vismodegib + OSI-027; first compound 0.08 µM)	relative viability (Vismodegib + OSI-027; first compound 0.253 µM)	relative viability (Vismodegib + OSI-027; first compound 0.8 µM)	relative viability (Vismodegib + OSI-027; first compound 2.53 µM)	relative viability (Vismodegib + OSI-027; first compound 8 µM)
NCI-H1915	0.315	0.311	0.325	0.153	0.253	0.8	0.81	0.826	0.79	0.678	1.12	1.05	1.05	1.04	1.03	0.669	0.592	0.536	0.566	0.608
NCI-H23	0.371	0.354	0.436	0.241	0.35	0.856	0.797	0.553	0.747	0.491	0.579	0.694	0.799	0.485	0.612	0.745	0.742	0.599	0.464	0.438
EMC-BAC-2	0.886	0.806	1.08	0.768	0.948	1.23	1.12	1.2	1.21	1.16	0.799	0.822	0.87	0.744	0.66	0.423	0.378	0.419	0.394	0.395
NCI-H2009	0.304	0.249	0.329	0.168	0.196	1.16	1.13	1.13	1.26	1.16	1.21	1.23	1.28	1.02	0.904	0.688	0.619	0.612	0.608	0.738
NCI-H460	0.195	0.161	0.151	0.0402	0.134	1.23	1.01	1.02	0.646	0.159	0.801	0.858	0.929	0.702	0.462	0.644	0.603	0.684	0.622	0.559
201T	0.753	0.803	0.927	0.907	0.922	1.23	1.2	1.21	1.32	1.12	1.1	1.15	1.19	1.21	1.22	0.834	0.741	0.733	0.731	0.747
NCI-H1993	0.433	0.734	0.573	0.49	0.443	0.787	0.747	0.772	0.797	0.694	0.785	0.783	0.779	0.801	0.796	0.572	0.479	0.579	0.562	0.594
RERF-LC-KJ	0.797	0.978	0.939	0.834	0.906	0.94	0.824	0.881	0.671	0.651	0.883	0.812	0.877	0.904	0.634	0.678	0.568	0.621	0.593	0.487
NCI-H1755	0.803	0.777	0.796	0.549	0.694	1.03	0.992	0.732	0.928	0.83	1	0.961	0.971	0.9	0.817	0.782	0.688	0.73	0.689	0.634
NCI-H1666	0.834	0.87	0.871	0.76	0.881	0.98	1.01	0.939	0.875	0.703	0.739	0.949	0.933	0.776	0.902	0.841	0.764	0.786	0.858	0.958
NCI-H2085	0.639	0.548	0.624	0.483	0.575	1.12	1.12	1.24	1.24	1.03	0.875	0.888	1.01	0.836	0.685	0.9	0.732	0.756	0.74	0.662
BEN	1.01	1.01	1.13	0.99	1.35	0.0647	0.0527	0.059	0.0551	0.0693	0.751	0.887	1.15	0.758	1.03	0.336	0.308	0.272	0.294	0.311
NCI-H1395	1.04	0.95	1.15	0.981	0.965	–	1.09	1.3	1.32	0.72	–	0.998	1.08	0.945	1.01	0.608	0.562	0.596	0.599	0.686
LCLC-97TM1	0.176	0.157	0.199	0.113	0.217	0.58	0.546	0.418	0.494	0.43	0.195	0.151	0.189	0.22	0.219	0.673	0.522	0.525	0.507	0.523
HCC-827	–	0.545	0.563	0.469	0.784	1.05	1.02	1.07	1.02	1.01	–	1.03	0.913	0.972	0.803	0.759	0.708	0.726	0.767	0.789
NCI-H596	0.741	0.702	0.928	0.763	0.789	0.72	1.05	0.987	0.894	0.644	1.24	1.18	1.09	1.11	1.11	0.791	0.634	0.672	0.734	0.781
